The source of these data is PubChem BioAssay (NCI).

SMILES strings stand for the structures.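 Compound exposure: 48 hours, 5 concentrations, 96-well plates. TGI: total growth inhibition.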 Peptide text beside a SMILES is read from it. * marks the point of attachment. X34 = O=C(c1ccc(-c2ccc(Cl)cc2Cl)o1)*

Some test systems named below: NCI-H522 lung; UACC-62 melanoma; CAKI-1 renal; IGROV1 ovarian; SK-OV-3 ovarian; COLO 205 colon; M14 melanoma; NCI-H23 lung; MDA-MB-435; A498 renal; SF-268 CNS; T-47D breast; HCT-15 colon; SK-MEL-2 melanoma; EKVX NSCLC; ACHN renal; MOLT-4 leukemia; SF-295 CNS; UACC-257 melanoma.
What all share (test): DTP human tumour cell line panel, 48 h

In general, TGI refers to the concentration giving total growth inhibition. Regarding `COc1cc(NC(C)=O)ccc1C(=O)N/N=C/c1ccco1`, the total growth inhibition concentration (TGI) with NCI-H522 lung, in the assay with UACC-62 melanoma, with CAKI-1 renal, in the assay with IGROV1 ovarian, in the assay on SK-OV-3 ovarian and in the assay on COLO 205 colon was over 100 µM each time. Also, the concentration for total growth inhibition (TGI) in the assay with M14 melanoma, with NCI-H23 lung, in the assay with MDA-MB-435, in the assay with A498 renal, in the assay on SF-268 CNS and in the assay on T-47D breast was over 100 µM each time. In addition, the TGI in the assay with HCT-15 colon, in the assay on SK-MEL-2 melanoma, in the assay on EKVX NSCLC, in the assay on ACHN renal, in the assay with MOLT-4 leukemia and with SF-295 CNS was over 100 µM each time.

Regarding `CC(=O)OCC1=CC2OC(=O)C3=COC(OC4OC(CO)C(O)C(O)C4O)C1C32` (stereo unspecified), the concentration for total growth inhibition (TGI) in the assay on NCI-H522 lung, in the assay with UACC-62 melanoma, in the assay with CAKI-1 renal, in the assay with IGROV1 ovarian, with SK-OV-3 ovarian and in the assay with COLO 205 colon was over 100 µM in each case. Moreover, the total growth inhibition concentration (TGI) in the assay with M14 melanoma, in the assay on NCI-H23 lung, in the assay with MDA-MB-435, with A498 renal, in the assay on SF-268 CNS and in the assay on T-47D breast was over 100 µM each time. The TGI in the assay with UACC-257 melanoma, in the assay on HCT-15 colon, in the assay with SK-MEL-2 melanoma, in the assay with EKVX NSCLC, in the assay on ACHN renal and in the assay with SF-295 CNS was over 100 µM each time.

For `CCOC(=O)/C(=C\c1cn(C(C)=O)c2ccccc12)P(C)(=O)OCC` (stereo unspecified), the TGI was 67.2 µM with NCI-H522 lung; over 100 µM in the assay on UACC-62 melanoma; over 100 µM with CAKI-1 renal; over 100 µM with IGROV1 ovarian; 66.1 µM in the assay on SK-OV-3 ovarian; over 100 µM in the assay with COLO 205 colon. The concentration for total growth inhibition (TGI) in the assay with M14 melanoma was over 100 µM; in the assay on MDA-MB-435, over 100 µM; in the assay on A498 renal, over 100 µM; with SF-268 CNS, 50.5 µM; with T-47D breast it was over 100 µM; in the assay on HCT-15 colon, over 100 µM. The TGI with SK-MEL-2 melanoma, in the assay with EKVX NSCLC, in the assay on ACHN renal, in the assay on MOLT-4 leukemia and in the assay on SF-295 CNS was over 100 µM each time.

Take `CCO[C@H]1O[C@@H]2OC3(C)CCC4[C@H](C)CCC([C@H]1C)[C@]42OO3` (stereo partly specified): the TGI was over 100 µM in the assay on NCI-H522 lung; over 100 µM in the assay on UACC-62 melanoma; over 100 µM in the assay with CAKI-1 renal; over 100 µM in the assay with IGROV1 ovarian; over 100 µM in the assay on SK-OV-3 ovarian; 25.5 µM with COLO 205 colon. For the same compound, the TGI in the assay on M14 melanoma, with NCI-H23 lung, in the assay on MDA-MB-435, in the assay on A498 renal, with SF-268 CNS and in the assay on T-47D breast was over 100 µM throughout. The concentration for total growth inhibition (TGI) in the assay with HCT-15 colon, in the assay with SK-MEL-2 melanoma, with EKVX NSCLC, with ACHN renal, in the assay on MOLT-4 leukemia and in the assay on SF-295 CNS was over 100 µM throughout.

Turning to `CC1=C[C@H]([C@H]2C=C(C)C(C(N)=O)=CN2Cc2c(Cl)cccc2Cl)N(Cc2c(Cl)cccc2Cl)C=C1C(N)=O`, the TGI in the assay with NCI-H522 lung, with UACC-62 melanoma, in the assay with CAKI-1 renal, in the assay on SK-OV-3 ovarian, with COLO 205 colon and in the assay on M14 melanoma was over 75 µM each time. In addition, the total growth inhibition concentration (TGI) in the assay with NCI-H23 lung, in the assay with MDA-MB-435, in the assay on A498 renal, in the assay on SF-268 CNS, with T-47D breast and in the assay on UACC-257 melanoma was over 75 µM throughout. In addition, the TGI with HCT-15 colon, in the assay on SK-MEL-2 melanoma, in the assay with EKVX NSCLC, in the assay on ACHN renal, in the assay on MOLT-4 leukemia and in the assay with SF-295 CNS was over 75 µM throughout.

Regarding `COC(=O)[C@@H]1C[C@]2(Br)c3ccccc3N(S(=O)(=O)c3ccccc3)[C@@H]2N1C(=O)OC`, the TGI in the assay with NCI-H522 lung, in the assay on UACC-62 melanoma, in the assay with CAKI-1 renal, with IGROV1 ovarian, with SK-OV-3 ovarian and with NCI-H23 lung was over 100 µM in each case. Also, the TGI was over 100 µM in the assay on MDA-MB-435; over 100 µM in the assay on A498 renal; over 100 µM in the assay on SF-268 CNS; over 100 µM with T-47D breast; 14.6 µM in the assay with UACC-257 melanoma; over 100 µM in the assay with HCT-15 colon. Moreover, the TGI with SK-MEL-2 melanoma, in the assay with EKVX NSCLC, in the assay on ACHN renal and in the assay with MOLT-4 leukemia was over 100 µM in each case.

As for `Cc1nn(C(=O)Cc2ccccc2)c2c1C(c1ccc([N+](=O)[O-])cc1)SC(N)=N2` (stereo unspecified), the concentration for total growth inhibition (TGI) in the assay with NCI-H522 lung, in the assay on UACC-62 melanoma, in the assay on CAKI-1 renal, in the assay with IGROV1 ovarian, in the assay with SK-OV-3 ovarian and in the assay on COLO 205 colon was over 100 µM throughout. Also, the total growth inhibition concentration (TGI) in the assay with M14 melanoma, in the assay on NCI-H23 lung, with MDA-MB-435, with A498 renal, in the assay on SF-268 CNS and with T-47D breast was over 100 µM in each case. Further, the TGI in the assay on UACC-257 melanoma, in the assay with HCT-15 colon, with EKVX NSCLC, with ACHN renal, in the assay on MOLT-4 leukemia and with SF-295 CNS was over 100 µM throughout.

With `O=C(c1ccccc1)N(CCCCNC(=O)C(F)(F)F)CCCNC(=O)C(F)(F)F`, the total growth inhibition concentration (TGI) in the assay on NCI-H522 lung, in the assay on UACC-62 melanoma, in the assay with CAKI-1 renal, in the assay with IGROV1 ovarian, in the assay with SK-OV-3 ovarian and in the assay on COLO 205 colon was over 100 µM each time. In addition, the concentration for total growth inhibition (TGI) with M14 melanoma, in the assay on NCI-H23 lung, in the assay with MDA-MB-435, with A498 renal, in the assay on SF-268 CNS and in the assay with T-47D breast was over 100 µM throughout. The total growth inhibition concentration (TGI) in the assay with UACC-257 melanoma, in the assay on HCT-15 colon, in the assay with EKVX NSCLC, in the assay on ACHN renal, with MOLT-4 leukemia and with SF-295 CNS was over 100 µM throughout.

Regarding `CC(=O)C1C(=O)C(C(C)=O)C2C3C=CC(C3)C12` (stereo unspecified), the TGI with NCI-H522 lung, in the assay with UACC-62 melanoma, in the assay on CAKI-1 renal, with IGROV1 ovarian, in the assay on SK-OV-3 ovarian and in the assay with COLO 205 colon was over 100 µM in each case. In addition, the TGI in the assay with NCI-H23 lung, with MDA-MB-435, in the assay with A498 renal, with SF-268 CNS, in the assay on T-47D breast and in the assay with UACC-257 melanoma was over 100 µM in each case. The total growth inhibition concentration (TGI) with HCT-15 colon, in the assay with SK-MEL-2 melanoma, in the assay with ACHN renal, in the assay with MOLT-4 leukemia and in the assay with SF-295 CNS was over 100 µM throughout.

Regarding `[C-]#[N+]C(=C\c1ccc(O)cc1)/C(=C/c1ccc(O)cc1)[N+]#[C-]`, the concentration for total growth inhibition (TGI) in the assay on NCI-H522 lung is over 33.1 µM; in the assay on UACC-62 melanoma it was 3.7 µM; with CAKI-1 renal it was 5.63 µM; in the assay with IGROV1 ovarian, over 23.6 µM; with SK-OV-3 ovarian, over 100 µM; with COLO 205 colon, 56.6 µM. Besides, the concentration for total growth inhibition (TGI) in the assay on M14 melanoma is over 20.4 µM; in the assay on NCI-H23 lung, 5.93 µM; with MDA-MB-435, over 19.8 µM; in the assay on A498 renal, over 24.8 µM; in the assay on SF-268 CNS it was over 100 µM; in the assay with T-47D breast it was 12.1 µM. The concentration for total growth inhibition (TGI) in the assay with UACC-257 melanoma is 6.98 µM; in the assay with HCT-15 colon it was over 100 µM; with EKVX NSCLC it was over 100 µM; with ACHN renal it was over 100 µM; in the assay on MOLT-4 leukemia, 7.67 µM; in the assay on SF-295 CNS, over 100 µM.

For `Cc1nc(C)c(N2CCN(S(N)(=O)=O)CC2)c(=O)[nH]1`, the TGI in the assay with NCI-H522 lung, with UACC-62 melanoma, with CAKI-1 renal, with IGROV1 ovarian, in the assay on SK-OV-3 ovarian and in the assay on COLO 205 colon was over 100 µM each time. Moreover, the total growth inhibition concentration (TGI) in the assay with M14 melanoma, in the assay with NCI-H23 lung, with MDA-MB-435, with A498 renal, in the assay on SF-268 CNS and with T-47D breast was over 100 µM throughout. Also, the total growth inhibition concentration (TGI) in the assay with UACC-257 melanoma, with HCT-15 colon, in the assay on EKVX NSCLC, in the assay on ACHN renal, with MOLT-4 leukemia and with SF-295 CNS was over 100 µM each time.

`COC(=O)C(CC(C)C)NC(=O)C(Cc1ccccc1)NC(=O)C1CCCN1C(=O)C(CO)NC(=O)c1ccc(-c2ccc(Cl)cc2Cl)o1` (stereo unspecified) (X34-SPFL-OMe; configuration not given here): the TGI was over 100 µM with NCI-H522 lung; over 100 µM in the assay with UACC-62 melanoma; over 100 µM with CAKI-1 renal; 25.7 µM in the assay on SK-OV-3 ovarian; 30.8 µM with COLO 205 colon; 49 µM in the assay on M14 melanoma. Also, the TGI is 97.6 µM with NCI-H23 lung; 90.3 µM with MDA-MB-435; 76.5 µM in the assay on A498 renal; over 100 µM in the assay with SF-268 CNS; over 100 µM with T-47D breast; 57.8 µM in the assay on UACC-257 melanoma. The TGI in the assay with HCT-15 colon was 72.6 µM; in the assay on SK-MEL-2 melanoma, 33.7 µM; in the assay on ACHN renal it was over 100 µM; in the assay with MOLT-4 leukemia, 80 µM; with SF-295 CNS, 46.5 µM.
